Measured values from patent publication US7915022B2, “Carbonyl reductase, gene thereof and method of using the same” (priority 2004, dated 2011).

How the values were obtained:
[1] = system: polypeptide consisting of the amino acid sequence shown in SEQ ID NO: 3 (carbonyl reductase), cell-free extract of E. coli HB101 (pNTOM3); assay: Substrate specificity of polypeptide produced by transformant E. coli HB101 (pNTOM3); assay type: biochemical, Ogataea minuta var. minuta NBRC0975; conditions: 1 mM substrate, 0.25 mM NADPH, pH 6.5, 30° C., 1 min; relative to activity on CBPB as 100%
Experimental: (§1) In 100 mM phosphate buffer (pH 6.5) containing 0.33% (v/v) dimethyl sulfoxide were dissolved a carbonyl compound to be a substrate to a final concentration of 1 mM, and a coenzyme NADPH to a final concentration of 0.25 mM, respectively. Thereto was added a cell-free extract of E. coli HB101 (pNTOM4) or E. coli HB101 (pNTOM3) prepared in Example 7, and the mixture was reacted at 30° C. for 1 min. The reduction activity on each carbonyl compound was calculated from the rate of decrease in the absorbance of the reaction mixture at a wavelength of 340 nm, and shown in Table 2 as a value relative to the activity on (3S)-1-chloro-3-tert-butoxycarbonylamino-4-phenyl-2-butanone as 100%.

[2] = system: polypeptide consisting of the amino acid sequence shown in SEQ ID NO: 4 (carbonyl reductase), cell-free extract of E. coli HB101 (pNTOM4); assay: Substrate specificity of polypeptide produced by transformant E. coli HB101 (pNTOM4); assay type: biochemical, Ogataea minuta var. minuta NBRC0975; conditions: 1 mM substrate, 0.25 mM NADPH, pH 6.5, 30° C., 1 min; relative to activity on CBPB as 100%
Experimental: as §1

CCOC(=O)C(=O)CCc1ccccc1 [ethyl 2-oxo-4-phenylbutyrate]
relative activity (%) E. coli HB101 (pNTOM3) [1]: 127% | relative activity (%) E. coli HB101 (pNTOM4) [2]: 106%

CCOC(=O)CC(=O)c1ccccc1 [ethyl benzoylacetate]
relative activity (%) E. coli HB101 (pNTOM3) [1]: 1233% | relative activity (%) E. coli HB101 (pNTOM4) [2]: 0%

O=Cc1ccccc1[N+](=O)[O-] [o-nitrobenzaldehyde]
relative activity (%) E. coli HB101 (pNTOM3) [1]: 1621% | relative activity (%) E. coli HB101 (pNTOM4) [2]: 89%

CC(=O)CC(C)=O [acetylacetone]
relative activity (%) E. coli HB101 (pNTOM3) [1]: 23% | relative activity (%) E. coli HB101 (pNTOM4) [2]: 0%

CCC(C)=O [2-butanone]
relative activity (%) E. coli HB101 (pNTOM3) [1]: 22% | relative activity (%) E. coli HB101 (pNTOM4) [2]: 0%

CCOC(=O)CC(=O)COCc1ccccc1 [ethyl 4-benzyloxyacetoacetate]
relative activity (%) E. coli HB101 (pNTOM3) [1]: 1259% | relative activity (%) E. coli HB101 (pNTOM4) [2]: 8%

CCOC(=O)CC(=O)COC(C)=O [ethyl 4-acetoxyacetoacetate]
relative activity (%) E. coli HB101 (pNTOM3) [1]: 465% | relative activity (%) E. coli HB101 (pNTOM4) [2]: 1%

O=Cc1ccccn1 [2-pyridinecarbaldehyde]
relative activity (%) E. coli HB101 (pNTOM3) [1]: 56% | relative activity (%) E. coli HB101 (pNTOM4) [2]: 1%

CCCC=O [n-butylaldehyde]
relative activity (%) E. coli HB101 (pNTOM3) [1]: 168% | relative activity (%) E. coli HB101 (pNTOM4) [2]: 0%

CC(=O)CC(=O)OC(C)(C)C [tert-butyl acetoacetate]
relative activity (%) E. coli HB101 (pNTOM3) [1]: 1330% | relative activity (%) E. coli HB101 (pNTOM4) [2]: 2%

CC(=O)c1ccccc1 [acetophenone]
relative activity (%) E. coli HB101 (pNTOM3) [1]: 215% | relative activity (%) E. coli HB101 (pNTOM4) [2]: 0%

CC(=O)c1ccccn1 [2-acetylpyridine]
relative activity (%) E. coli HB101 (pNTOM3) [1]: 29% | relative activity (%) E. coli HB101 (pNTOM4) [2]: 0%

O=Cc1cccc(Cl)c1 [m-chlorobenzaldehyde]
relative activity (%) E. coli HB101 (pNTOM3) [1]: 344% | relative activity (%) E. coli HB101 (pNTOM4) [2]: 17%

CC(=O)c1cnccn1 [acetylpyrazine]
relative activity (%) E. coli HB101 (pNTOM3) [1]: 185% | relative activity (%) E. coli HB101 (pNTOM4) [2]: 0%

CC(C=O)c1ccccc1 (stereo not drawn) [2-phenylpropionaldehyde]
relative activity (%) E. coli HB101 (pNTOM3) [1]: 479% | relative activity (%) E. coli HB101 (pNTOM4) [2]: 3%

CC(=O)c1ccncc1 [4-acetylpyridine]
relative activity (%) E. coli HB101 (pNTOM3) [1]: 98% | relative activity (%) E. coli HB101 (pNTOM4) [2]: 0%

C=CC(C(C)=O)C(=O)OCC (stereo not drawn) [ethyl 2-eteneacetoacetate]
relative activity (%) E. coli HB101 (pNTOM3) [1]: 2013% | relative activity (%) E. coli HB101 (pNTOM4) [2]: 10%

CCOC(=O)C(C)C(C)=O (stereo not drawn) [ethyl 2-methylacetoacetate]
relative activity (%) E. coli HB101 (pNTOM3) [1]: 619% | relative activity (%) E. coli HB101 (pNTOM4) [2]: 4%

CCOC(=O)C(Cl)C(=O)c1ccccc1 (stereo not drawn) [ethyl 2-chloro-3-oxo-3-phenylpropionate]
relative activity (%) E. coli HB101 (pNTOM3) [1]: 716% | relative activity (%) E. coli HB101 (pNTOM4) [2]: 5%

O=C1CCCc2ccccc21 [1-tetoralone]
relative activity (%) E. coli HB101 (pNTOM3) [1]: 146% | relative activity (%) E. coli HB101 (pNTOM4) [2]: 1%

CCCCC(C)=O [2-hexanone]
relative activity (%) E. coli HB101 (pNTOM3) [1]: 11% | relative activity (%) E. coli HB101 (pNTOM4) [2]: 0%

O=C(CO)c1ccccc1 [2-hydroxyacetophenone]
relative activity (%) E. coli HB101 (pNTOM3) [1]: 32% | relative activity (%) E. coli HB101 (pNTOM4) [2]: 1%

CCOC(=O)CC(C)=O [ethyl acetoacetate]
relative activity (%) E. coli HB101 (pNTOM3) [1]: 137% | relative activity (%) E. coli HB101 (pNTOM4) [2]: 0%

CC(=O)CCc1ccccc1 [benzylacetone]
relative activity (%) E. coli HB101 (pNTOM3) [1]: 66% | relative activity (%) E. coli HB101 (pNTOM4) [2]: 0%

O=C(CCl)c1cccc(Cl)c1 [2-chloro-1-(3′-chlorophenyl)ethanone]
relative activity (%) E. coli HB101 (pNTOM3) [1]: 1301% | relative activity (%) E. coli HB101 (pNTOM4) [2]: 33%

CC(=O)c1ccc(Cl)cc1 [4′-chloroacetophenone]
relative activity (%) E. coli HB101 (pNTOM3) [1]: 35% | relative activity (%) E. coli HB101 (pNTOM4) [2]: 9%

COC(=O)C(C)=O [methyl pyruvate]
relative activity (%) E. coli HB101 (pNTOM3) [1]: 674% | relative activity (%) E. coli HB101 (pNTOM4) [2]: 5%

O=Cc1ccccc1Cl [o-chlorobenzaldehyde]
relative activity (%) E. coli HB101 (pNTOM3) [1]: 269% | relative activity (%) E. coli HB101 (pNTOM4) [2]: 17%

CCC=O [propionaldehyde]
relative activity (%) E. coli HB101 (pNTOM3) [1]: 99% | relative activity (%) E. coli HB101 (pNTOM4) [2]: 0%

CCOC(=O)C(=O)c1ccccc1 [ethyl benzoylformate]
relative activity (%) E. coli HB101 (pNTOM3) [1]: 296% | relative activity (%) E. coli HB101 (pNTOM4) [2]: 20%

COc1ccc(C(C)=O)cc1OC [3′,4′-dimethoxyacetophenone]
relative activity (%) E. coli HB101 (pNTOM3) [1]: 51% | relative activity (%) E. coli HB101 (pNTOM4) [2]: 4%

CC(=O)CO [hydroxyacetone]
relative activity (%) E. coli HB101 (pNTOM3) [1]: 51% | relative activity (%) E. coli HB101 (pNTOM4) [2]: 0%

COC(=O)CC(C)=O [methyl acetoacetate]
relative activity (%) E. coli HB101 (pNTOM3) [1]: 8% | relative activity (%) E. coli HB101 (pNTOM4) [2]: 0%

O=Cc1ccncc1 [pyridine-4-aldehyde]
relative activity (%) E. coli HB101 (pNTOM3) [1]: 571% | relative activity (%) E. coli HB101 (pNTOM4) [2]: 2%

CCCCCCCCOC(=O)CC(=O)CCl [n-octyl 4-chloroacetoacetate]
relative activity (%) E. coli HB101 (pNTOM3) [1]: 466% | relative activity (%) E. coli HB101 (pNTOM4) [2]: 24%

O=Cc1cccc([N+](=O)[O-])c1 [m-nitrobenzaldehyde]
relative activity (%) E. coli HB101 (pNTOM3) [1]: 851% | relative activity (%) E. coli HB101 (pNTOM4) [2]: 29%

CCOC(=O)C1CCC(=O)C1 (stereo not drawn) [ethyl 3-oxocyclopentanecarboxylate]
relative activity (%) E. coli HB101 (pNTOM3) [1]: 484% | relative activity (%) E. coli HB101 (pNTOM4) [2]: 12%

CCOC(=O)CC(=O)CCl [ethyl 4-chloroacetoacetate]
relative activity (%) E. coli HB101 (pNTOM3) [1]: 4547% | relative activity (%) E. coli HB101 (pNTOM4) [2]: 22%

COc1ccc2c(c1)CC(=O)CC2 [7-methoxy-2-tetoralone]
relative activity (%) E. coli HB101 (pNTOM3) [1]: 599% | relative activity (%) E. coli HB101 (pNTOM4) [2]: 6%

CC(=O)c1ccc(F)cc1 [4′-fluoroacetophenone]
relative activity (%) E. coli HB101 (pNTOM3) [1]: 28% | relative activity (%) E. coli HB101 (pNTOM4) [2]: 1%

O=C(c1ccccc1)C(O)c1ccccc1 (stereo not drawn) [benzoin]
relative activity (%) E. coli HB101 (pNTOM3) [1]: 4018% | relative activity (%) E. coli HB101 (pNTOM4) [2]: 5%

O=CCCCC=O [glutaraldehyde]
relative activity (%) E. coli HB101 (pNTOM3) [1]: 80% | relative activity (%) E. coli HB101 (pNTOM4) [2]: 1%

O=C1CCCC1 [cyclopentanone]
relative activity (%) E. coli HB101 (pNTOM3) [1]: 8% | relative activity (%) E. coli HB101 (pNTOM4) [2]: 0%

O=CCCc1ccccc1 [3-phenylpropionaldehyde]
relative activity (%) E. coli HB101 (pNTOM3) [1]: 2410% | relative activity (%) E. coli HB101 (pNTOM4) [2]: 7%

CCCCCC=O [n-hexylaldehyde]
relative activity (%) E. coli HB101 (pNTOM3) [1]: 265% | relative activity (%) E. coli HB101 (pNTOM4) [2]: 3%

CCC(=O)Cc1ccccc1 [1-phenyl-2-butanone]
relative activity (%) E. coli HB101 (pNTOM3) [1]: 285% | relative activity (%) E. coli HB101 (pNTOM4) [2]: 2%

CCOC(=O)CC(=O)CBr [ethyl 4-bromoacetoacetate]
relative activity (%) E. coli HB101 (pNTOM3) [1]: 476% | relative activity (%) E. coli HB101 (pNTOM4) [2]: 7%

CCOC(=O)C(Cl)C(C)=O (stereo not drawn) [ethyl 2-chloroacetoacetate]
relative activity (%) E. coli HB101 (pNTOM3) [1]: 3309% | relative activity (%) E. coli HB101 (pNTOM4) [2]: 40%

CC(=O)c1cccnc1 [3-acetylpyridine]
relative activity (%) E. coli HB101 (pNTOM3) [1]: 15% | relative activity (%) E. coli HB101 (pNTOM4) [2]: 0%

CCCCCCC(C)=O [2-octanone]
relative activity (%) E. coli HB101 (pNTOM3) [1]: 808% | relative activity (%) E. coli HB101 (pNTOM4) [2]: 3%

CC(C)(C)OC(=O)N[C@@H](Cc1ccccc1)C(=O)CCl [CBPB, (3S)-1-chloro-3-tert-butoxycarbonylamino-4-phenyl-2-butanone]
relative activity (%) E. coli HB101 (pNTOM3) [1]: 100% | relative activity (%) E. coli HB101 (pNTOM4) [2]: 100%

CCOC(=O)CC(=O)CN=[N+]=[N-] [ethyl 4-azideacetoacetate]
relative activity (%) E. coli HB101 (pNTOM3) [1]: 659% | relative activity (%) E. coli HB101 (pNTOM4) [2]: 1%

CCOC(=O)C(C)=O [ethyl pyruvate]
relative activity (%) E. coli HB101 (pNTOM3) [1]: 1067% | relative activity (%) E. coli HB101 (pNTOM4) [2]: 23%

CC(=O)c1cccc([N+](=O)[O-])c1 [3′-nitroacetophenone]
relative activity (%) E. coli HB101 (pNTOM3) [1]: 273% | relative activity (%) E. coli HB101 (pNTOM4) [2]: 31%

O=Cc1ccccc1 [benzaldehyde]
relative activity (%) E. coli HB101 (pNTOM3) [1]: 81% | relative activity (%) E. coli HB101 (pNTOM4) [2]: 1%

CC(=O)C(C)=O [diacetyl]
relative activity (%) E. coli HB101 (pNTOM3) [1]: 444% | relative activity (%) E. coli HB101 (pNTOM4) [2]: 5%

O=Cc1ccc([N+](=O)[O-])cc1 [p-nitrobenzaldehyde]
relative activity (%) E. coli HB101 (pNTOM3) [1]: 1166% | relative activity (%) E. coli HB101 (pNTOM4) [2]: 21%

O=Cc1ccc(Cl)cc1 [p-chlorobenzaldehyde]
relative activity (%) E. coli HB101 (pNTOM3) [1]: 91% | relative activity (%) E. coli HB101 (pNTOM4) [2]: 12%

CC(=O)CC(=O)OCc1ccccc1 [benzyl acetoacetate]
relative activity (%) E. coli HB101 (pNTOM3) [1]: 883% | relative activity (%) E. coli HB101 (pNTOM4) [2]: 4%

CCCCCC(C)=O [2-heptanone]
relative activity (%) E. coli HB101 (pNTOM3) [1]: 102% | relative activity (%) E. coli HB101 (pNTOM4) [2]: 0%

CC(=O)c1cccc(O)c1 [3′-hydroxyacetophenone]
relative activity (%) E. coli HB101 (pNTOM3) [1]: 33% | relative activity (%) E. coli HB101 (pNTOM4) [2]: 0%

CCCCCCCCC(=O)C(=O)OCC [ethyl 2-oxodecanoate]
relative activity (%) E. coli HB101 (pNTOM3) [1]: 985% | relative activity (%) E. coli HB101 (pNTOM4) [2]: 5%

CC(=O)c1ccc(C)cc1 [4′-methylacetophenone]
relative activity (%) E. coli HB101 (pNTOM3) [1]: 41% | relative activity (%) E. coli HB101 (pNTOM4) [2]: 1%
